Measured values taken from patent publication US20100152301A1, “Treatment of Viral Infections” (GOVERNMENT OF THE US, AS REPRESENTED BY THE SECRETARY, …, priority 2005, published 2010).

Columns and labels:
[1] = molecular target: T1, HIV-1 integrase (Human immunodeficiency virus type 1 group M subtype B, UniProt P04585); test: Integrase catalytic assay, 3′-processing (3′-P), 21 bp duplex substrate; format: biochemical; details: for IC50: In vitro IC50 21 bp substrate 3′-P; for inhibition at 333 µM: drug concentration of 333 μM
T1 construct: Expression and purification of the recombinant HIV-1 integrase in Escherichia coli; made in house; host or cells: Escherichia coli
Protocol: (§1) Recombinant HIV integrase and oligonucleotide substrates. Expression and purification of the recombinant HIV-1 integrase in Escherichia coli were performed according to (Leh et al., 2000; Marchand et al., 2001) with addition of 10% glycerol to all buffers. The preparation of the Q148C/SSS-mutant integrase will be described elsewhere (Johnson et al., 2005). The oligonucleotide substrates, except those used for the disulfide crosslinking (FIG. 5A), were purchased from Integrated DNA Technologies, Inc. (Coraville, Iowa) and purified by polyacrylamide gel. The single-stranded oligonucleotides were 5′-end labeled with [γ^32P]-ATP (Perkin Elmer, Wellesley, M A) and T4 polynucleotide kinase (New England BioLabs, Ipswich, M A). Unincorporated nucleotide was removed using mini Quick Spin Oligo columns (Roche Diagnostics, Indianapolis, Ind.). Substrates were obtained after annealing with complementary non-labeled oligonucleotides. The thiol-modified substrate (FIG. 5A) for disulfide crosslinking assay was synthesized as essentially described by W. Santos and G. Verdine (Department of Chemistry and Chemical Biology, Harvard University, Cambridge, Mass.) (They and Verdine, 2002).
(§2) Integrase catalytic assays. Reactions were performed in 10 μl with 300 nM of recombinant IN, 20 nM of the 5′-end [^32P]-labeled oligonucleotide substrates and inhibitors at the indicated concentrations. 10% DMSO was included in controls. Reactions were incubated for 40 min at 37° C. in a buffer containing a final concentration of 25 mM MOPS, pH 7.2, 25 mM NaCl, 14.3 mM β-mercaptoethanol and 7.5 mM of divalent cations (MgCl2 or MnCl2 as indicated). Reactions were stopped by addition of 20 μl loading dye (10 mM EDTA, 98% deionized formamide, 0.025% xylene cyanol and 0.025% bromophenol blue). Reactions were heated at 95° C. for 1 min before electrophoresis in 20% polyacrylamide-7 M urea gels. Gels were dried and reaction products were visualized and quantitated with a Molecular Dynamics PhosphorImager (Sunnyvale, Calif.). Densitometric analyses were performed using ImageQuant from the Molecular Dynamics software. The concentrations at which enzyme activity was reduced by 50% (IC50), was determined using “Prism” software (GraphPad Software, San Diego, Calif.) for nonlinear regression to fit dose-response data to logistic curve models.

[2] = molecular target: T1, HIV-1 integrase; test: Integrase catalytic assay, strand transfer (ST), 21 bp duplex substrate; format: biochemical; details: for inhibition activity, ST, 21 bp substrate: drug concentration of 333 μM; for inhibition at 333 µM: read-out: inhibition activity, ST, 21 bp substrate
Protocol: as §1, §2

[3] = molecular target: T1, HIV-1 integrase; test: Strand transfer assay with preprocessed (19/21) DNA substrate; format: biochemical; details: for IC50: In vitro IC50 Preprocessed substrate; for inhibition at 333 µM: drug concentration of 333 μM
Protocol: as §1, §2

[4] = molecular target: T1, HIV-1 integrase; test: Disintegration assay with Y-oligomer substrate; format: biochemical; details: for IC50: In vitro IC50 Disintegration; for inhibition activity, disintegration: drug concentration of 333 μM; for inhibition at 333 µM: read-out: inhibition activity, disintegration
Protocol: as §1, §2

[5] = molecular target: T2, Q148C/SSS-mutant integrase (Human immunodeficiency virus type 1 group M subtype B, UniProt P04585, C1203S/C1212S/C1427S/Q1295C); test: biochemical; format: binding, HIV-1; details: drug 1 mM; Mg2+ or Mn2+ (FIG. 5B)
T2 construct: 10 μM recombinant Q148C/SSS-mutant integrase was incubated with 10 μM DNA substrate; made in house
Protocol: Briefly, 10 μM recombinant Q148C/SSS-mutant integrase was incubated with 10 μM DNA substrate (FIG. 5A) containing tethered thiols in the presence of 20 mM Tris, pH 7.4, 10% glycerol and 7.5 mM of divalent cations (MgCl2 or MnCl2 as indicated) for 20 min at 37° C. Reactions were stopped by the addition of 20 mM methylmethanethiosulfonate (capping reagent). Non-reducing gel loading buffer (100 mM Tris-HCl, pH 6.8, 4% SDS, 0.2% bromophenol blue, 20% glycerol) was added and samples were heated at 95° C. before loading onto 16% tricine gels (Invitrogen, Carlsbad, Calif.). Gels were stained with Microwave Blue according to manufacturer's recommendations (Protiga, Frederick, Md.).
DNA (20 nM) containing a [5′-^32P]-label on one strand and a thiol-modified cytosine on the other strand was added and reactions were capped with methylmethanethiosulfonate at 1 minute. Following capping, non-reducing gel loading buffer (100 mM Tris-HCl, pH 6.8, 4% SDS, 0.2% bromophenol blue, 20% glycerol) was added and samples were directly loaded on 16% tricine gels (Invitrogen, Carlsbad, Calif.). Gels were dried and reaction products were quantitated using the same way as described above.

[6] = read-out: inhibition activity, 3′-P, 21 bp substrate, Mg2+
[7] = read-out: inhibition activity, 3′-P, 21 bp substrate, Mn2+
[8] = In vitro IC50 21 bp substrate ST, Mg2+
[9] = In vitro IC50 21 bp substrate ST, Mn2+
[10] = Mn2+ as cofactor, U5 LTR DNA substrate
[11] = read-out: inhibition activity, preprocessed substrate, Mg2+
[12] = read-out: inhibition activity, preprocessed substrate, Mn2+

| Compound | IC50 ([1]; Mg2+) [µM] | IC50 ([1]; Mn2+) [µM] | inhibition at 333 µM [1, 6] [%] | inhibition at 333 µM [1, 7] [%] | IC50 [2, 8] [µM] | IC50 [2, 9] [µM] | potency against HIV-1 integrase relative to the minimal tropolone core [2, 10] | inhibition activity, ST, 21 bp substrate ([2]; Mn2+) | inhibition at 333 µM [2] [%] | IC50 ([3]; Mg2+) [µM] | IC50 ([3]; Mn2+) [µM] | inhibition at 333 µM [3, 11] [%] | inhibition at 333 µM [3, 12] [%] | IC50 ([4]; Mg2+) [µM] | IC50 ([4]; Mn2+) [µM] | inhibition activity, disintegration ([4]; Mn2+) | inhibition at 333 µM [4] [%] | inhibition of integrase-DNA disulfide-crosslinking (in words) [5] | IC50 ([2]; IC50, inhibition of HIV-1 integrase (first screen), Mn2+ as cofactor, U5 LTR DNA substrate, 3′-P or ST not specified) [µM] |
| --- | --- | --- | --- | --- | --- | --- | --- | --- | --- | --- | --- | --- | --- | --- | --- | --- | --- | --- | --- |
| CC(C)c1cccc(=O)c(O)c1 [NSC 18804, β-thujaplicin] | > 333 | > 333 | 20 to 40 | 20 to 40 | > 333 | > 333 | failed to increase potency | 2 (5% < inhibition activity < 20%) | 5 to 20 | > 333 | > 333 | 5 to 20 | 5 to 20 | > 333 | > 333 | 1 (inhibition activity ≦ 5%) | < 5 | lack of inhibition |  |
| CC(C)c1ccccc(=O)c1O [NSC 18805, α-thujaplicin] | > 333 | > 333 | 5 to 20 | 5 to 20 | > 333 | > 333 | failed to increase potency | 1 (inhibition activity ≦ 5%) | < 5 | > 333 | > 333 | < 5 | < 5 | > 333 | > 333 | 1 (inhibition activity ≦ 5%) | < 5 |  |  |
| CC(C)c1ccc(O)c(=O)cc1 [NSC 43338, γ-thujaplicin] | > 333 | > 333 | < 5 | < 5 | > 333 | > 333 | failed to increase potency | 1 (inhibition activity ≦ 5%) | < 5 | > 333 | > 333 | < 5 | < 5 | > 333 | > 333 | 1 (inhibition activity ≦ 5%) | < 5 |  |  |
| CC(C)=CCc1ccc(=O)c(O)cc1C(C)C [NSC 43339, nootkatin] | > 333 | > 333 | 5 to 20 | 5 to 20 | > 333 | > 333 | failed to increase potency | 3 (20% < inhibition activity < 40% at drug concentration of 333 μM) | 20 to 40 | > 333 | > 333 | 5 to 20 | 20 to 40 | > 333 | > 333 | 1 (inhibition activity ≦ 5%) | < 5 |  |  |
| O=c1cccccc1O [NSC 89303, tropolone] | > 333 | > 333 | < 5 | 5 to 20 | > 333 | > 333 |  | 3 (20% < inhibition activity < 40% at drug concentration of 333 μM) | 20 to 40 | > 333 | > 333 | 5 to 20 | 5 to 20 | > 333 | > 333 | 1 (inhibition activity ≦ 5%) | < 5 |  | > 333 |
| C=C(C)C1CCc2c(c(C)cc(O)c(=O)c2O)C1 (stereo not drawn) [NSC 310618, manicol] | 182 ± 42.5 | 20.2 |  |  | 71.1 ± 3.8 | 11.7 ± 5.2 |  |  |  | > 333 | 25.8 | 20 to 40 |  | > 333 | 98.3 |  | 5 to 20 |  |  |
